In patent US8334272B2, “Methods for nucleic acid transfer into cells” (Northwestern University, priority 2007, dated 2012):
Entries after “also recorded” stand apart in the source; their conditions may differ.

Experiments:
[1] = tested on: A549 cells; test: Luciferase expression after electroporation of pCMV-Lux-DTS plasmid (transfection efficiency); assay type: cell-based, human; conditions: for exogenous gene expression as measured by luciferase expression over appropriate control (FIG. 4): A549 cell cultures; for luciferase expression versus DMSO (vehicle) treated or wild type cells: A549, 3 hours after electroporation, 1 μM TSA, 3 mM 17b, 1 mM 17-AAG, 10 nM okadaic acid; for exogenous gene expression (luciferase) versus vehicle control: A549, 24 hours after electroporation and 25 hours after drug treatment
Procedure: Human adenocarcinoma A549 cells (ATCC, #CCL-185, Rockville, Md.) were grown in DMEM supplemented with 10% fetal bovine serum (FBS). A stable line of A549 cells expressing firefly luciferase was constructed by transfection of cells with plasmid pGL4.14[luc2/Hygro] (Promega, Madison, Wis.) and selection with hygromycin. Colonies were pooled and passaged under selection. HIF-1 and HIF-2 knockdowns were created in A549 cells using retroviral methods with the PT67 packaging cell line (Clontech, Mountain View, Calif.). PT67 cells were transfected with 10 to 15 μg of specific shRNA-expressing or empty plasmids using lipofectin (Invitrogen, Carlsbad, Calif.) according to the manufacturer's protocol. Virus-containing medium was supplemented with 8 μg/ml of polybrene (Sigma, St. Louis, Mo.) for infection. Stable HDAC6 knockdown or stable HDAC6 overexpressing A549 cells were a generous gift from T. P. Yao (Duke University). For electroporations, cells were grown to confluency in […] dishes, and rinsed twice in serum- and antibiotic-free media. Five micrograms of plasmids in 500 µl of serum and antibiotic-free DMEM were added to each well and one […] square wave electric pulse was applied using a PetriPulser electrode (BTX, San Diego, Calif.). […] Drugs were used at the following final concentrations: 1 μM TSA, 1 mM Sodium Butyrate, […], 3 mM 17B, 1 mM 17-AAG, and 10 nM Okadaic Acid. […] All luciferase measurements were normalized to total cell protein and reported as fold-increases in expression over DMSO (vehicle-treated). All experiments were performed in triplicate wells and the experiments were repeated at least three times. For statistical analyses, student's t-tests were used. Cells grown on etched coverslips were microinjected as previously described. At least 100 cells were injected for each condition and experiments were repeated three times.
Plasmid pCMV-lux-DTS expresses luciferase from the CMV immediate early promoter and contains the SV40 DNA nuclear targeting sequence downstream of the reporter gene. All plasmids were purified from E. coli using Qiagen Gigaprep kits as described by the manufacturer (Qiagen, Chatsworth, Calif.). Plasmid pDD306, expressing GFP from the CMV promoter and which contains the GeneGrip1 PNA binding site (Gene Therapy Systems, San Diego, Calif.) was labeled with Cy3-labeled PNA as described. Briefly, plasmids were labeled with Cy3-PNA in the manufacturer's labeling buffer at 37° C. for 2 hours followed by isopropanol precipitation to remove unbound Cy3-PNA. Plasmid labeling was verified by agarose gel electrophoresis and fluorescent detection in the absence of ethidium bromide.

[2] = tested on: acetylated tubulin; test: Total and acetylated tubulin by immunofluorescence and Western blot; assay type: cell-based, human; design: level of microtubules (polymerized tubulin) / acetylated microtubules after treatment: dose or concentration left out as unconfirmed; conditions: for microtubule (tubulin) acetylation: cell cultures, immunofluorescence, versus treatment controls
Procedure: Prior to collection, samples were washed once in PBS (37° C.), and stabilized in two 15 minute washes in microtubule stabilization buffer (0.1M PIPES, pH 6.75, 1 mM EGTA, 1 mM MgSO4, 2 M glycerol, protease inhibitors). Cells were then lysed in microtubule lysis buffer (25 mM Tris-HCl, pH 7.4, 0.4 M NaCl and 0.5% SDS). All extracted samples were mixed with SDS-PAGE sample buffer (112.5 mM Tris-HCl, pH 6.8, 10%-mercaptoethanol, 3.6% SDS, 1.8% glycerol, 0.001% bromophenol blue) such that equal amounts of total protein were loaded for each fraction. The samples were boiled for 3 min and separated by 12% SDS-PAGE gels according to the methods previously described by Lugtenberg. Proteins were transferred to nitrocellulose and probed using anti-acetylated (1:1000, Sigma) or anti-tubulin (1:1000, Sigma) in PBS with 5% fat-free powdered milk. Blots were developed with a chemiluminescence detection kit, and autoradiograms were digitized before densitometry using ImageJ (NIH, Bethesda, Md.). All samples were run in duplicate and were from at least three independent experiments. After all treatment regimes, cells were washed with PBS followed by a 10 minute incubation in fixation/permeabilization buffer (60 mM PIPES, 25 mM HEPES, 10 mM EGTA, 3 mM MgCl2, 0.2% Triton X-100, and 3.7% paraformaldehyde). Cells were then washed in PBS and blocked for 1 hour in PBS containing 1 mg/ml BSA. After blocking, the cells were incubated for 1 hour with the appropriate primary antibody in PBS with 0.1 mg/ml BSA, washed in PBS, and reacted for 30 minutes with Alexa 488 or 555 conjugated secondary antibody (1:200, Molecular Probes, Eugene, Oreg.) in PBS with 0.1% BSA. Following a second set of washes in PBS, the silastic membranes were excised from the culture plates, placed face up on a microscope slide, and covered with a coverslip. All images were acquired in OpenLab (Improvision, Lexington, Mass.) with a Hamamatsu Orca II-ER camera attached to Leica DRMX-2 upright fluorescent microscope using a 100× oil-immersion objective.

[3] = tested on: cytoplasmic HDACs (HDAC6); conditions: A549 cytoplasmic extracts
Procedure: HDAC6 Activity measurements. Cytoplasmic lysates were prepared as previously described to separate HDAC6 from nuclear HDAC activity (36). Cells were then probed for HDAC activity using a fluorescent HDAC activity kit (BioMol International LP, Plymouth Meeting, Pa.). At various times during the development of the assay, the reagents were quenched, allowing for a determination of the relative activity of the cytoplasmic HDACs.

[4] = target: T1, HDAC6 (Homo sapiens, UniProt Q9UBN7); conditions: sodium butyrate 1 mM, Trichostatin A 1 μM where stated; cited from earlier work
T1 sequence (Q9UBN7 1-1215): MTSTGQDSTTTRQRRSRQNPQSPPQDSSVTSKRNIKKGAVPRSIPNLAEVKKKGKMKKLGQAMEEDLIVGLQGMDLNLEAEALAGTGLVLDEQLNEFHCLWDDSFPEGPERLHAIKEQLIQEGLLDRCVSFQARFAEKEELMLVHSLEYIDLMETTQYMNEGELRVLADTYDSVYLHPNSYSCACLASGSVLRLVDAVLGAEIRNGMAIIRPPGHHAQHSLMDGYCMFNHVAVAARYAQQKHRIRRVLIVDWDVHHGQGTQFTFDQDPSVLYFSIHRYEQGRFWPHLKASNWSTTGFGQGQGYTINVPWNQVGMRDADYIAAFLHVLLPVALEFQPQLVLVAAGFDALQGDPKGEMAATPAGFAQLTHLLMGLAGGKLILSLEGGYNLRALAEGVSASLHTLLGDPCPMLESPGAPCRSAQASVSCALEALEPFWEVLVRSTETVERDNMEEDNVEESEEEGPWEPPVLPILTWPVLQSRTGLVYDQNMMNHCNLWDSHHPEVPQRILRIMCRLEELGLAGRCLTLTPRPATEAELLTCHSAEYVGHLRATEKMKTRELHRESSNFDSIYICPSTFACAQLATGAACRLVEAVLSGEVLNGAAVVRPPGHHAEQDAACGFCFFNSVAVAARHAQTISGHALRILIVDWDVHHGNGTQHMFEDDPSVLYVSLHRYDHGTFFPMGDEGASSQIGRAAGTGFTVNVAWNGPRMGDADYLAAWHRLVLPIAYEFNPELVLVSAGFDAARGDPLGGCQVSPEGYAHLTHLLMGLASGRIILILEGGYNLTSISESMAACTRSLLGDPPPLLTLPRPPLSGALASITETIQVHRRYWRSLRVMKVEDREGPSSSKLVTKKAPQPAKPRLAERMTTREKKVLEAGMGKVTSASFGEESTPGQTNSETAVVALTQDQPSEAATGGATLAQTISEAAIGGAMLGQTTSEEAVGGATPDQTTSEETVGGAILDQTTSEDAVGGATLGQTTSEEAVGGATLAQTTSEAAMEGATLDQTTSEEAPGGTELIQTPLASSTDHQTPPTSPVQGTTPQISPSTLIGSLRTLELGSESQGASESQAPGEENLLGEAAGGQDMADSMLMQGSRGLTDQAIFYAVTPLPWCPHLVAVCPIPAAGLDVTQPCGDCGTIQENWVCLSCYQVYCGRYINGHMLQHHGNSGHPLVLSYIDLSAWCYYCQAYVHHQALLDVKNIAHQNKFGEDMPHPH

SMILES | exogenous gene expression as measured by luciferase expression over appropriate control (FIG. 4) [1] | luciferase expression versus DMSO (vehicle) treated or wild type cells [1] | exogenous gene expression (luciferase) versus vehicle control [1] | microtubule (tubulin) acetylation [2] | other results
O=C(CCCCCCC(=O)Nc1ccc([C@H]2O[C@@H](CSc3nc(-c4ccccc4)c(-c4ccccc4)o3)C[C@@H](c3ccc(CO)cc3)O2)cc1)NO [Tubacin, tubacin] | increased |  |  |  | exogenous gene expression as measured by luciferase expression over appropriate control (FIG. 4) ([1]; listed as tubacin): greatly increased
CC(/C=C/C(=O)NO)=C\[C@@H](C)C(=O)c1ccc(N(C)C)cc1 [TSA, trichostatin A] | increased | slight but significant increase | significant increases | significant microtubule acetylation | higher increase in expression than sodium butyrate ([1]; A549, 24 hours after electroporation, 25 hours after drug): ~10 fold; microtubule (tubulin) acetylation ([2]; listed as trichostatin A): increased; cytoplasmic HDAC activity in the assay [3]: quenched
C=CCNC1=C2C[C@@H](C)C[C@H](OC)[C@H](O)[C@@H](C)/C=C(\C)[C@H](OC(N)=O)[C@@H](OC)/C=C\C=C(/C)C(=O)NC(=CC1=O)C2=O [17-AAG] |  | no increase in expression; also recorded: dampened |  |  | 
C=C1[C@@H](O)[C@@H]2O[C@]3(CC[C@H](/C=C/[C@@H](C)[C@@H]4CC(C)=C[C@@]5(O[C@H](C[C@@](C)(O)C(=O)O)CC[C@H]5O)O4)O3)CC[C@H]2O[C@@H]1[C@@H](O)C[C@H](C)[C@H]1O[C@@]2(CCCCO2)CC[C@H]1C [okadiac acid, Okadaic Acid] |  | did not result the increase in expression |  |  | 
COC(=O)Nc1nc2ccc(C(=O)c3cccs3)cc2[nH]1 [nocodazole] |  |  |  |  | acetylated microtubules after treatment ([2]; A549, Nocodazole, 3 hours): still remained; level of microtubules (polymerized tubulin) ([2]; A549, Nocodazole, 3 hours): greatly diminished
CCCC(=O)[O-].[Na+] [sodium butyrate] |  |  | significant increases | not and not observed | HDAC inhibition selectivity [4]: does not inhibit HDAC6; also recorded: inhibits all HDACs except for HDAC6
